The text below walks through data of US20230250096A1, “SUBSTITUTED PHENYL-1H-PYRROLO[2,3-c] PYRIDINE DERIVATIVES” (Janssen Pharmaceutica NV, priority 2021, published 2023).

What is called IC50 is the point on the concentration scale where inhibition reaches its midpoint. Read a low IC50 as higher potency.

Each structure is given as a SMILES string.

Assay [1] concerns MEIS1 mRNA expression. Briefly: MEIS1 mRNA expression assay (Quantigene Singleplex) in MOLM14 cells. Type of assay: cell-based, human. The note with it: 48 hours incubation. Here is the method:
2b) MEIS1 mRNA Expression Assay
MEIS1 mRNA expression upon treatment of compound was examined by Quantigene Singleplex assay (Thermo Fisher Scientific). This technology allows for direct quantification of mRNA targets using probes hybridizing to defined target sequences of interest and the signal is detected using a Multimode plate reader Envision (PerkinElmer). The MOLM14 cell line was used for this experiment. Cells were plated in 96-well plates at 3,750 cells/well in the presence of increasing concentrations of compounds. After incubation of 48 hours with compounds, cells were lysed in lysis buffer and incubated for 45 minutes at 55° C. Cell lysates were mixed with human MEIS specific capture probe or human RPL28 (Ribosomal Protein L28) specific probe as a normalization control, as well as blocking probes. Cell lysates were then transferred to the custom assay hybridization plate (Thermo Fisher Scientific) and incubated for 18 to 22 hours at 55° C. Subsequently, plates were washed to remove unbound materials followed by sequential addition of preamplifiers, amplifiers, and label probe. Signals (═gene counts) were measured with a Multimode plate reader Envision. IC50S were calculated by dose-response modelling using appropriate software. For all non-housekeeper genes response equal counts corrected for background and relative expression. For each sample, each test gene signal (background subtracted) was divided by the normalization gene signal (RPL28: background subtracted). Fold changes were calculated by dividing the normalized values for the treated samples by the normalized values for the DMSO treated sample. Fold changes of each target gene were used for the calculation of IC50S.

Assay [2] concerns the target T1, menin/MLL (terbium chelate-labeled menin, FITC-MBM1 peptide) (Homo sapiens, UniProt O00255, T541A).
T1 construct: Menin (a.a 1-610-6xhis tag, 2.3 mg/mL in 20 mM Hepes)
T1 sequence (O00255 with tags, fused parts or gaps T541A): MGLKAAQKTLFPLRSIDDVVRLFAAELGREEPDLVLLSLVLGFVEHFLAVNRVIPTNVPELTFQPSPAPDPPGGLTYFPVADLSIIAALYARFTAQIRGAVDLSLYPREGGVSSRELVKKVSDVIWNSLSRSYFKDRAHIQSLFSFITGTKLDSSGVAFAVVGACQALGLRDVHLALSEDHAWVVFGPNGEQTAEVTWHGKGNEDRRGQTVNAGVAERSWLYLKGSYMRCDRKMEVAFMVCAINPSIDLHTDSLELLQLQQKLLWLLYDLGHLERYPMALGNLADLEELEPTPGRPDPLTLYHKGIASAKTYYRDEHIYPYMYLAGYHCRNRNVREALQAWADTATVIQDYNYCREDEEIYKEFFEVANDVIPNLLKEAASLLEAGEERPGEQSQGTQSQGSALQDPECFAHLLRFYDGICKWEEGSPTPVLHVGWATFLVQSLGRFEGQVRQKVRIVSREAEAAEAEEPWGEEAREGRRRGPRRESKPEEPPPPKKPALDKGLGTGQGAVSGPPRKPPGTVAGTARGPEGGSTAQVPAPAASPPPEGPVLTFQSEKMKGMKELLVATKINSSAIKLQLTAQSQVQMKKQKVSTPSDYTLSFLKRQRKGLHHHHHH
Description: Menin/MLL homogenous time-resolved fluorescence (HTRF) assay. Type of assay: binding. The note with it: 30 min incubation. Here is the method:
1) Menin/MLL Homogenous Time-Resolved Fluorescence (HTRF) Assay
To an untreated, white 384-well microtiter plate was added 40 nL 200× test compound in DMSO and 4 μL 2× terbium chelate-labeled menin (vide infra for preparation) in assay buffer (40 mM Tris HCl, pH 7.5, 50 mM NaCl. 1 mM DTT (dithiothreitol) and 0.05% Pluronic F-127). After incubation of test compound and terbium chelate-labeled menin for 30 min at ambient temperature, 4 μL 2×FITC-MBM1 peptide (FITC-β-alanine-[…]-NH2) (“FITC” means fluorescein isothiocyanate) in assay buffer was added, the microtiter plate centrifuged at 1000 rpm for 1 min and the assay mixtures incubated for 15 min at ambient temperature. The relative amount of menin FITC-MBM1 complex present in an assay mixture is determined by measuring the homogenous time-resolved fluorescence (HTRF) of the terbium/FITC donor/acceptor fluorphore pair using an EnVision microplate reader (ex. 337 nm/terbium em. 490 nm/FITC em. 520 nm) at ambient temperature. The degree of fluorescence resonance energy transfer (the HTRF value) is expressed as the ratio of the fluorescence emission intensities of the FITC and terbium fluorophores (F^em520 nm/F^em490 nm). The final concentrations of reagents in the binding assay are […] terbium chelate-labeled menin, 75 nM FITC-MBM1 peptide and 0.5% DMSO in assay buffer. Dose-response titrations of test compounds are conducted using an 11 point, four-fold serial dilution scheme, starting typically at 10 μM.
Compound potencies were determined by first calculating % inhibition at each compound concentration according to equation 1:
% inhibition=((HC−LC)−(HTRF^compound−LC))/(HC−LC))*100 (Eqn 1)
Where LC and HC are the HTRF values of the assay in the presence or absence of a saturating concentration of a compound that competes with FITC-MBM1 for binding to menin, and HTRF^compound is the measured HTRF value in the presence of the test compound. HC and LC HTRF values represent an average of at least 10 replicates per plate.
% inhibition=Bottom+(Top−Bottom)/(1+10^((log/C50−log[cmpd])*h)) (Eqn 2)
Where Bottom and Top are the lower and upper asymptotes of the dose-response curve, respectively, IC50 is the concentration of compound that yields 50% inhibition of signal and h is the Hill coefficient.
Preparation of Terbium cryptate labeling of Menin: Menin (a.a 1-610-6xhis tag, 2.3 mg/mL in 20 mM Hepes (2-[4-(2-Hydroxyethyl)-1-piperazinyl]ethane sulfonic acid), 80 mM NaCl, 5 mM DTT (Dithiothreitol), pH 7.5) was labeled with terbium cryptate as follows. 200 μg of Menin was buffer exchanged into 1×Hepes buffer. 6.67 μM Menin was incubated with 8-fold molar excess NHS (N-hydroxysuccinimide)-terbium cryptate for 40 minutes at room temperature. Half of the labeled protein was purified away from free label by running the reaction over a NAP5 column with elution buffer (0.1M Hepes, pH 7+0.1% BSA (bovine serum albumin)). The other half was eluted with 0.1 M phosphate buffered saline (PBS), pH7. 400 μl of eluent was collected for each, aliquoted and frozen at −80° C. The final concentration of terbium-labeled Menin protein was 115 μg/mL in Hepes buffer and 85 μg/mL in PBS buffer, respectively.

On to `CC(=O)N1C[C@@H]2CN([C@H]3C[C@H](C(C(C)C)N4CC(Cc5cn(-c6ccc(F)cc6C(=O)N(C)C(C)C)c6cncc(Cl)c56)C4)C3)C[C@H]2C1` (single isomer, unassigned) [Compound 40b], for which the IC50 is approximately 680 nM in assay [1] (Homo sapiens, MOLM-14, 48 h) and 0.182 nM in assay [2].

On to `Cc1cncc2c1c(CC1CNC(CC3CCOCC3)C1)cn2-c1ccc(F)cc1C(=O)N(C)C(C)C` (single isomer, unassigned) [Compound 134c], for which the figures for the half-inhibitory concentration (IC50) in assay [1] and in assay [2] were 119 nM and 0.073 nM, respectively.

On to `Cc1cncc2c1c(C[C@@H]1CCN(CC3CCN(C(=O)C(C)C)CC3)C1)cn2-c1ccc(F)cc1C(=O)N(C[C@H](C)O)C(C)C` [Compound 330], for which the IC50 in assay [1] (Homo sapiens, MOLM-14, 48 h) stood at 10 nM; in assay [2] it was 0.13 nM.

In the case of `CC(=O)N1CCCC(N2CC(Cc3cn(-c4ccc(F)cc4C(=O)N(C)C(C)C)c4cncc(C)c34)C2)CC1` (centres unmarked) [Compound 295], the IC50 was 338 nM in assay [1] (Homo sapiens, MOLM-14, 48 h) and 0.171 nM in assay [2].

For `CC(=O)N1CCC(CN2CCC(Cc3cn(-c4ccc(F)cc4C(=O)N(C)C(C)C)c4cncc(C)c34)C2C)CC1` (centres unmarked) [Compound 229], the IC50 amounted to 93 nM in assay [1] and 0.235 nM in assay [2].

For `Cc1cncc2c1c(CC1CCN(CC3CCN(C(=O)C(C)C)CC3)C1)cn2-c1ccc(F)cc1C(=O)N1CC(O)CC1C` (centres unmarked) [Compound 332], the IC50 in assay [1] (Homo sapiens, MOLM-14, 48 h) was determined as 196 nM; in assay [2], 0.13 nM.

Consider `CC(=O)N1CCC(C2(CN3CC(Cc4cn(-c5ccc(F)cc5C(=O)N(C)C(C)C)c5cncc(C)c45)C3)CC2)CC1` [Compound 298], for which the IC50 turned out to be 178 nM in assay [1] (Homo sapiens, MOLM-14, 48 h) and 0.083 nM in assay [2].

Consider `Cc1cncc2c1c(C=C1CCN(CC3CCOCC3)C1)cn2-c1ccc(F)cc1C(=O)N(C)C(C)C` (single isomer, unassigned) [Compound 523a], for which the IC50 in assay [1] was more than 1000 nM; in assay [2], 0.376 nM.

Turning to `Cc1cncc2c1c(CC1CCN(C(CCC3OCCO3)C(C)C)C1)cn2-c1ccc(F)cc1C(=O)N(C)C(C)C` (single isomer, unassigned) [Compound 366], the IC50 in assay [1] (Homo sapiens, MOLM-14, 48 h) is approximately 319 nM; in assay [2], 0.067 nM.

For the molecule `Cc1cncc2c1c(C[C@@H]1CCN(CC3CCN(C(=O)C(C)C)CC3)C1)cn2-c1ccc(F)cc1C(=O)N(C[C@@H](C)O)C(C)C` [Compound 331], the IC50 in assay [1] (Homo sapiens, MOLM-14, 48 h) was determined as 29 nM; in assay [2] it was 0.117 nM.

As for `Cc1cncc2c1c(CC1CN(CC3CCOCC3)C1)cn2-c1ccc(F)cc1C(=O)N(C)C1CC1` [Compound 265], the IC50 in assay [1] (Homo sapiens, MOLM-14, 48 h) was 46 nM; in assay [2] it was 0.097 nM.

For `CC(=O)N1CC2(CC(CN3CCC(Cc4cn(-c5ccc(F)cc5C(=O)N(C)C(C)C)c5cncc(C)c45)C3)C2)C1` (centres unmarked) [Compound 107], the IC50 in assay [1] (Homo sapiens, MOLM-14, 48 h) was 226 nM; in assay [2] it was 0.188 nM.

Consider `Cc1cncc2c1c(CC1CN(C3CCCN(C)C(=O)C3)C1)cn2-c1ccc(F)cc1C(=O)N(C)C(C)C` (centres unmarked) [Compound 291], for which the IC50 in assay [1] (Homo sapiens, MOLM-14, 48 h) amounted to 468 nM; in assay [2], 0.594 nM.

Consider `CC(=O)N1C[C@@H]2CN(CCCC(C(C)C)N3CC[C@H](Cc4cn(-c5ccc(F)cc5C(=O)N(C)C(C)C)c5cncc(C)c45)C3)C[C@H]2C1` (mixture of isomers) [Compound 13], for which the IC50 came to 6 nM in assay [1] (Homo sapiens, MOLM-14, 48 h) and 0.124 nM in assay [2].

For `CC(=O)N1CCC(CN2C[C@H](Cc3cn(-c4ccc(F)cc4C(=O)N(C)C(C)C)c4cncc(C)c34)C[C@@H]2C)CC1` [Compound 132], the half-inhibitory concentration (IC50) in assay [1] (Homo sapiens, MOLM-14, 48 h) was approximately 573 nM; in assay [2], 1.21 nM.

Turning to `Cc1cncc2c1c(C[C@@H]1CCN(C[C@@H]3CCNC(=O)CC3)C1)cn2-c1ccc(F)cc1C(=O)N1CCC2CC21` (single isomer, unassigned) [Compound 351b], the IC50 in assay [1] (Homo sapiens, MOLM-14, 48 h) is 182 nM; in assay [2], 0.255 nM.

`CC(=O)N1[C@@H](C)CC(N2CC(Cc3cn(-c4ccc(F)cc4C(=O)N(C)C(C)C)c4cncc(C)c34)C2)C[C@@H]1C` (some centres unmarked) [Compound 302]: the IC50 turned out to be 78 nM in assay [1] (Homo sapiens, MOLM-14, 48 h) and 0.05 nM in assay [2].

For `CC(=O)N1[C@H](C)CC(N2CC(Cc3cn(-c4ccc(F)cc4C(=O)N(C)C(C)C)c4cncc(C)c34)C2)C[C@@H]1C` (some centres unmarked) [Compound 301], the IC50 in assay [1] (Homo sapiens, MOLM-14, 48 h) is 144 nM; in assay [2] it was 0.191 nM.

As to `CCC(C1CCN(C(C)=O)CC1)N1CC[C@@H](Cc2cn(-c3ccc(F)cc3C(=O)N(C)C(C)C)c3cncc(C)c23)C1` (single isomer, unassigned) [Compound 246], the IC50 in assay [1] was 16 nM; in assay [2], 0.057 nM.

In the case of `Cc1cncc2c1c(CC1CN([C@@H](C(C)C)[C@H]3C[C@@H](N4CCN(S(C)(=O)=O)CC4)C3)C1)cn2-c1ccc(F)cc1C(=O)N(C)C(C)C` (single isomer, unassigned) [Compound 34a], the IC50 in assay [1] (Homo sapiens, MOLM-14, 48 h) is 16 nM; in assay [2], 0.019 nM.

As for `Cc1cncc2c1c(CC1CN(CC3CCCOC3)C1)cn2-c1ccc(F)cc1C(=O)N(C)C(C)C` (centres unmarked) [Compound 289], the IC50 was 31 nM in assay [1] (Homo sapiens, MOLM-14, 48 h) and 0.055 nM in assay [2].

Turning to `Cc1cncc2c1c(C[C@H]1CCN(CC3CCN(C(=O)C(C)(C)O)CC3)C1)cn2-c1ccc(F)cc1C(=O)N(C)C(C)C` [Compound 244], the IC50 in assay [1] (Homo sapiens, MOLM-14, 48 h) came out at 51 nM; in assay [2], 0.101 nM.

Consider `CCN(C(=O)c1cc(F)ccc1-n1cc(C[C@@H]2CCN(CC3CCNC(=O)CC3)C2)c2c(C)cncc21)C(C)C` (mixture of isomers) [Compound 254], for which the IC50 in assay [1] (Homo sapiens, MOLM-14, 48 h) was 19 nM; in assay [2], 0.071 nM.

For the molecule `Cc1cncc2c1c(C[C@@H]1CCN(CC3CCN(C(=O)C(C)C)CC3)C1)cn2-c1ccc(F)cc1C(=O)N(CCO)C(C)C` [Compound 329], the IC50 in assay [1] (Homo sapiens, MOLM-14, 48 h) amounted to 13 nM; in assay [2], 0.152 nM.

For `CC(=O)NC(C)CN1CCC(Cc2cn(-c3ccc(F)cc3C(=O)N(C)C(C)C)c3cncc(C)c23)C1` (single isomer, unassigned) [Compound 103], the IC50 in assay [1] is approximately 5120 nM; in assay [2] it was 3.27 nM.
